In general, IC50 refers to the concentration that gives 50% inhibition.

Sequence of His-tagged KRAS G12D protein (P01116 1-188 isoform P01116-2 G12D): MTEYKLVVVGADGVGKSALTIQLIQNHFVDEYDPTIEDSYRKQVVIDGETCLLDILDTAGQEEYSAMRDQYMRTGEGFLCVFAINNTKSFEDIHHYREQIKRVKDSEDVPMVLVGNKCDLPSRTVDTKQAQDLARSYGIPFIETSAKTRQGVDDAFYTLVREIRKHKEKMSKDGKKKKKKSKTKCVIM

One assay concerns the target His-tagged KRAS G12D protein (Homo sapiens, UniProt P01116, G12D). Kind of assay: KRAS G12D TR-FRET assay (binding). The following applies: biotinylated KRPep-2d substrate, GDP in assay buffer. Background: Time-resolved FRET reads energy transfer from a long-lived donor to a nearby acceptor.
Experimental: The plate was incubated for 30 minutes at room temperature. Biotinylated KRPep-2d substrate (Amgen) was diluted to 20 nM in Assay Buffer and 2 L was added to all wells and incubated for 1 hour at room temperature. Detection Reagent (0.4 nM LANCE Eu-W1024 Anti-6xHis (Perkin Elmer AD0401), 5 nM streptavidin-d^2 (Cisbio 610SADLA)) was prepared in Assay Buffer, then 4 μL was added to the plate and incubated for 1 hour at room temperature.
`CCc1c(F)ccc2cc(O)cc(-c3ncc4c(N5CC6COC(C5)C6O)nc(OC[C@@]56CCCN5C[C@H](F)C6)nc4c3F)c12` (relative stereo) [Example 11, 3-(7-(8-Ethyl-7-fluoro-3-hydroxynaphthalen-1-yl)-8-fluoro-2-(((2R,7aS)-2-fluorotetrahydro-1H-pyrrolizin-7a(5H)-yl)methoxy)pyrido [4,3-d]pyrimidin-4-yl)-6-oxa-3-azabicyclo[3.2.1] octan-8-ol] came in with a concentration for half-maximal inhibition (IC50) of 39 nM.

In the case of `CCc1c(F)ccc2cc(O)cc(-c3ncc4c(N5CCCOC(C(=O)NC)C5)nc(OC[C@@]56CCCN5C[C@H](F)C6)nc4c3F)c12` (single isomer, unassigned) [Example 42], the half-inhibitory concentration (IC50) is 2 nM.

Turning to `CCc1c(F)ccc2cc(O)cc(-c3ncc4c(N5CCCOC(C(=O)NC)C5)nc(OC[C@@]56CCCN5C[C@H](F)C6)nc4c3F)c12` (single isomer, unassigned) [Example 43], the IC50 came to 249 nM.

Turning to `CCc1c(F)ccc2cc(O)cc(-c3ncc4c(N5CCOCC(C(=O)NC)C5)nc(OC[C@@]56CCCN5C[C@H](F)C6)nc4c3F)c12` (single isomer, unassigned) [Example 44], the IC50 is 26 nM.

The compound `CCc1c(F)ccc2cc(O)cc(-c3ncc4c(N5CCOCC(C(=O)NC)C5)nc(OC[C@@]56CCCN5C[C@H](F)C6)nc4c3F)c12` (single isomer, unassigned) [Example 45] displayed a concentration for half-maximal inhibition (IC50) of 2 nM.

In the case of `CCc1c(F)ccc2cc(O)cc(-c3ncc4c(N5CCOCC(C(N)=O)C5)nc(OC[C@@]56CCCN5C[C@H](F)C6)nc4c3F)c12` (single isomer, unassigned) [Example 46], the IC50 turned out to be 17 nM.

Consider `CCc1c(F)ccc2cc(O)cc(-c3ncc4c(N5CCOCC(C(N)=O)C5)nc(OC[C@@]56CCCN5C[C@H](F)C6)nc4c3F)c12` (single isomer, unassigned) [Example 47], for which the concentration for half-maximal inhibition (IC50) is 3 nM.

In turn, `CCc1c(F)ccc2cc(O)cc(-c3ncc4c(N5CCCOC(CO)C5)nc(OC[C@@]56CCCN5C[C@H](F)C6)nc4c3F)c12` (single isomer, unassigned) [Example 48] showed an IC50 of 10 nM.

In turn, `CCc1c(F)ccc2cc(O)cc(-c3ncc4c(N5CCCOCC5)nc(OCC5(C)CCC(=O)N5)nc4c3F)c12` (stereo not drawn) [Example 30, 5-(((7-(8-ethyl-7-fluoro-3-hydroxynaphthalen-1-yl)-8-fluoro-4-(1,4-oxazepan-4-yl)pyrido[4,3-d]pyrimidin-2-yl)oxy)methyl)-5-methylpyrrolidin-2-one] came in with an IC50 of 37 nM.

The compound `CCc1c(F)ccc2cc(O)cc(-c3ncc4c(N5CCCOCC5)nc(OCC5(C#N)CCNC5)nc4c3F)c12` (stereo not drawn) [Example 31, 3-(((7-(8-ethyl-7-fluoro-3-hydroxynaphthalen-1-yl)-8-fluoro-4-(1,4-oxazepan-4-yl)pyrido[4,3-d]pyrimidin-2-yl)oxy)methyl) pyrrolidine-3-carbonitrile] returned an IC50 of 11 nM.

Consider `CCc1c(F)ccc2cc(O)cc(-c3ncc4c(N5CCCOCC5)nc(OCC5(C#N)CCN(C)C5)nc4c3F)c12` (stereo not drawn) [Example 33, 3-(((7-(8-ethyl-7-fluoro-3-hydroxynaphthalen-1-yl)-8-fluoro-4-(1,4-oxazepan-4-yl)pyrido[4,3-d]pyrimidin-2-yl)oxy)methyl)-1-methylpyrrolidine-3-carbonitrile], for which the IC50 was determined as 27 nM.

In turn, `CCc1c(F)ccc2cc(O)cc(-c3ncc4c(N5CCSC(CO)C5)nc(OC[C@@]56CCCN5C[C@H](F)C6)nc4c3F)c12` (stereo partly drawn) [Example 40, 5-Ethyl-6-fluoro-4-(8-fluoro-2-(((2R,7aS)-2-fluorotetrahydro-1H-pyrrolizin-7a(5H)-yl)methoxy)-4-(2-(hydroxymethyl)thiomorpholino)pyrido[4,3-d]pyrimidin-7-yl)naphthalen-2-ol] showed a 50% inhibitory concentration (IC50) of 6 nM.

Compound `CCc1c(F)ccc2cc(O)cc(-c3ncc4c(N5CCOCC[C@H]5C)nc(OC[C@@]56CCCN5C[C@H](F)C6)nc4c3F)c12` [Example 54, 5-Ethyl-6-fluoro-4-(8-fluoro-2-(((2R,7aS)-2-fluorotetrahydro-1H-pyrrolizin-7a(5H)-yl)methoxy)-4-((R)-5-methyl-1,4-oxazepan-4-yl)pyrido[4,3-d]pyrimidin-7-yl)naphthalen-2-ol] showed a 50% inhibitory concentration (IC50) of 7 nM.

`CCc1c(F)ccc2cc(O)cc(-c3ncc4c(N5CCOCC[C@@H]5C)nc(OC[C@@]56CCCN5C[C@H](F)C6)nc4c3F)c12` [Example 55, 5-Ethyl-6-fluoro-4-(8-fluoro-2-(((2R, 7aS)-2-fluorotetra-hydro-1H-pyrrol-izin-7a(5H)-yl)-methoxy)-4-((S)-5-methyl-1,4-oxazepan-4-yl)-pyrido[4,3-d]pyrimidin-7-yl)-naphthalen-2-ol] came in with an IC50 of 7 nM.

The compound `CCc1c(F)ccc2cc(O)cc(-c3ncc4c(N5CC6COCC(C5)C6O)nc(OC[C@@]56CCCN5C[C@H](F)C6)nc4c3F)c12` (stereo partly drawn) [Example 58, 7-(7-(8-Ethyl-7-fluoro-3-hydroxy-naphthalen-1-yl)-8-fluoro-2-(((2R,7aS)-2-fluorotetrahydro-1H-pyrrolizin-7a(5H)-yl)meth-oxy)pyrido[4,3-d]pyrimidin-4-yl)-3-oxa-7-azabicyclo [3.3.1]nonan-9-ol] displayed a half-maximal inhibitory concentration (IC50) of 14 nM.

On to `CCc1c(F)ccc2cc(O)cc(-c3ncc4c(N5CCOC(CO)C5)nc(OC[C@@]56CCCN5C[C@H](F)C6)nc4c3F)c12` (stereo partly drawn) [Example 60, 5-Ethyl-6-fluoro-4-(8-fluoro-2-(((2R, 7aS)-2-fluorotetra-hydro-1H-pyrrol-izin-7a(5H)-yl)-methoxy)-4-(2-(hydroxymethyl)-morpholino)pyrido [4,3-d]pyrimidin-7-yl)naphthalen-2-ol], for which the IC50 was 15 nM.

`CCc1c(F)ccc2cc(O)cc(-c3ncc4c(N5C[C@H]6CCC[C@@H](C5)O6)nc(OC[C@@]56CCCN5C[C@H](F)C6)nc4c3F)c12` [Example 64, 4-(4-((1R,5S)-9-oxa-3-azabicyclo [3.3.1]nonan-3-yl)-8-fluoro-2-(((2R, 7aS)-2-fluorotetra-hydro-1H-pyrrolizin-7a(5H)-yl)methoxy)-pyrido[4,3-d]pyrim-idin-7-yl)-5-ethyl-6-fluoronaphthalen-2-ol] returned an IC50 of 44 nM.

In turn, `CCc1c(F)ccc2cc(O)cc(-c3ncc4c(N5CCOC(CC#N)C5)nc(OC[C@@]56CCCN5C[C@H](F)C6)nc4c3F)c12` (stereo partly drawn) [Example 65, 2-(4-(7-(8-Ethyl-7-fluoro-3-hydroxy-naphthalen-1-yl)-8-fluoro-2-(((2R,7aS)-2-fluorotetrahydro-1H-pyrrolizin-7a(5H)-yl)methoxy)-pyrido[4,3-d]pyrim-idin-4-yl)morpholin-2-yl)acetonitrile] displayed a concentration for half-maximal inhibition (IC50) of 43 nM.

Take `CCc1c(F)ccc2cc(O)cc(-c3ncc4c(N5CCOC(C(F)F)C5)nc(OC[C@@]56CCCN5C[C@H](F)C6)nc4c3F)c12` (stereo partly drawn) [Example 75, 4-(4-(2-(Difluoromethyl)morpholino)-8-fluoro-2-(((2R,7aS)-2-fluorotetrahydro-1H-pyrrolizin-7a(5H)-yl)methoxy)pyrido[4,3-d]pyrimidin-7-yl)-5-ethyl-6-fluoronaphthalen-2-ol]: the IC50 stood at 52 nM.

Compound `CCc1c(F)ccc2cc(O)cc(-c3ncc4c(N5CCCOCC5)nc(OCC5(CO)CC5)nc4c3F)c12` [Example 77, 5-Ethyl-6-fluoro-4-(8-fluoro-2-((1-(hydroxymethyl)cyclopropyl)methoxy)-4-(1,4-oxazepan-4-yl)pyrido[4,3-d]pyrimidin-7-yl)naphthalen-2-ol] gave a 50% inhibitory concentration (IC50) of 41 nM.

A further assay has as its system Phosphorylation of ERK1/2 in AsPC-1 cells. Kind of assay: Phospho-ERK1/2 MSD assay. In kind it is cell-based. Particulars: Homo sapiens, ASPC1, read-out: 2 h p-ERK (AsPC-1 cells), IC50 (μM), 2 hours compound treatment. On the procedure: Sixteen hours prior to compound treatment, AsPC-1 cells were seeded in 96-well cell culture plates at a density of 25,000 cells/well and incubated at 37° C., 5% CO2. A compound dose-response titration was diluted in growth media, added to appropriate wells of a cell culture plate, and then incubated at 37° C., 5% CO2 for 2 hours.
Turning to `CCc1c(F)ccc2cc(O)cc(-c3ncc4c(N5CC6COC(C5)C6O)nc(OC[C@@]56CCCN5C[C@H](F)C6)nc4c3F)c12` (relative stereo) [Example 11, 3-(7-(8-Ethyl-7-fluoro-3-hydroxynaphthalen-1-yl)-8-fluoro-2-(((2R,7aS)-2-fluorotetrahydro-1H-pyrrolizin-7a(5H)-yl)methoxy)pyrido [4,3-d]pyrimidin-4-yl)-6-oxa-3-azabicyclo[3.2.1] octan-8-ol], the half-maximal inhibitory concentration (IC50) is greater than 10 µM.

As for `CCc1c(F)ccc2cc(O)cc(-c3ncc4c(N5CCOCC(C(=O)NC)C5)nc(OC[C@@]56CCCN5C[C@H](F)C6)nc4c3F)c12` (single isomer, unassigned) [Example 45], the IC50 was determined as 0.427 µM.

In the case of `CCc1c(F)ccc2cc(O)cc(-c3ncc4c(N5CCOCC(C(N)=O)C5)nc(OC[C@@]56CCCN5C[C@H](F)C6)nc4c3F)c12` (single isomer, unassigned) [Example 47], the IC50 was 1.47 µM.

As for `CCc1c(F)ccc2cc(O)cc(-c3ncc4c(N5CCCOC(CO)C5)nc(OC[C@@]56CCCN5C[C@H](F)C6)nc4c3F)c12` (single isomer, unassigned) [Example 48], the IC50 was 1.05 µM.

With `CCc1c(F)ccc2cc(O)cc(-c3ncc4c(N5CCOCC(C)(O)C5)nc(OC[C@@]56CCCN5C[C@H](F)C6)nc4c3F)c12` (single isomer, unassigned) [Example 69], the IC50 was determined as 0.004 µM.

On to `Oc1cc(-c2ncc3c(N4CCCOCC4)nc(OC[C@@]45CCCN4C[C@H](F)C5)nc3c2F)c2ccccc2c1` [Example 14, 4-(8-Fluoro-2-(((2R,7aS)-2-fluorotetrahydro-1H-pyrrolizin-7a(5H)-yl)methoxy)-4-(1,4-oxazepan-4-yl)pyrido[4,3-d]pyrimidin-7-yl)naphthalen-2-ol], for which the IC50 was determined as 0.794 µM.

As to `CCc1c(F)ccc2cc(O)cc(-c3ncc4c(N5CCOC[C@@H](O)C5)nc(OC[C@@]56CCCN5C[C@H](F)C6)nc4c3F)c12` [Example 25, (S)-4-(7-(8-Ethyl-7-fluoro-3-hydroxynaphthalen-1-yl)-8-fluoro-2-(((2R,7aS)-2-fluorotetrahydro-1H-pyrrolizin-7a(5H)-yl)methoxy)pyrido [4,3-d]pyrimidin-4-yl)-1,4-oxazepan-6-ol], the IC50 stood at 0.292 µM.

In the case of `CCc1c(F)ccc2cc(O)cc(-c3ncc4c(N5CCOC[C@H](O)C5)nc(OC[C@@]56CCCN5C[C@H](F)C6)nc4c3F)c12` [Example 26, (R)-4-(7-(8-Ethyl-7-fluoro-3-hydroxynaphthalen-1-yl)-8-fluoro-2-(((2R,7aS)-2-fluorotetrahydro-1H-pyrrolizin-7a(5H)-yl)methoxy)pyrido [4,3-d]pyrimidin-4-yl)-1,4-oxazepan-6-ol], the IC50 was 2.27 µM.

Consider `CCc1c(F)ccc2cc(O)cc(-c3ncc4c(N5CCCOCC5)nc(OC[C@]56CCCN5C[C@H](F)C6)nc4c3F)c12` [Example 41, 5-ethyl-6-fluoro-4-(8-fluoro-2-(((2R, 7aR)-2-fluorotetra-hydro-1H-pyrrol-izin-7a(5H)-yl)-methoxy)-4-(1,4-oxazepan-4-yl)pyr-ido[4,3-d]pyrimi-din-7-yl)naphtha-len-2-ol], for which the IC50 was determined as 0.035 µM.

For `CCc1c(F)ccc2cc(O)cc(-c3ncc4c(N5CCOC[C@@H](CO)C5)nc(OC[C@@]56CCCN5C[C@H](F)C6)nc4c3F)c12` [Example 50, 5-Ethyl-6-fluoro-4-(8-fluoro-2-(((2R, 7aS)-2-fluorotetra-hydro-1H-pyrrol-izin-7a(5H)-yl)-methoxy)-4-((R)-6-(hydroxymeth-yl)-1,4-oxazepan-4-yl)pyrido[4,3-d]pyrimidin-7-yl)-naphthalen-2-ol], the IC50 worked out at 0.07 µM.
